How the values were obtained:
Assay type in all cases: in vivo
[1] = tested on: Balb/c mice; test: Murine auricular photo-irradiation test (ear edema after 2% ketoprofen + UVA); conditions: UVA 40 J/cm^2, toward the KP group
Description: The following experiments were carried out by referring to the method of Gerberick et al. (Food Chem. Toxicol., 27, 813-819 (1989) and modifying a part of it. Namely, as a test animal, Balb/c mice (female, 9-11 weeks old) were used. Each test substance {4-tert-butyl-4′-methoxydibenzoylmethane (BM-DBM), 2-ethylhexyl dimethoxybenzylidenedioxoimidazolidinepropionate (DB-D1H), terephthalylidene-3,3′-dicamphor-10,10′-disulfonic acid (TCDCS) and n-hexyl 2-(4-dimethylamino-2-hydroxybenzoyl)benzoate (DHB-BH)} which were dissolved in ethanol and 2% ketoprofen (KP) were applied on the auricle, and followed by WA irradiation at 40 J/cm^2.
The ear thickness was measured 24 hours after the WA irradiation, and an increase from the ear thickness prior to the start of the test was calculated.

[2] = tested on: Balb/c mice; test: Murine auricular lymph node test 2 (modified LLNA, lymph node weight after ketoprofen + UVA); conditions: test substance 2% with KP 2%; UVA 20 J/cm^2, three days; lymph node removed after 5 days; toward the KP group
Description: Detection of a skin symptom due to an immunological mechanism resulting from KP upon photo-irradiation was carried out by other modified method of the above LLNA. Namely, as a test animal, Balb/c mice (female, 8-12 weeks old) were used. A test substance of 2% concentration and KP of 2% concentration which were dissolved in acetone—olive oil (4:1, v/v) or acetone—olive oil—physiological saline (3:3:1, v/v) were applied on the back of the pinna, and followed by UVA irradiation at 20 J/cm^2. This treatment inducing sensitization was carried out for three days consecutively. After 5 days from the start of the sensitization, the murine auricular lymph node was removed, and pooled in PBS. Then, PBS attached to the removed lymph node was sufficiently wiped up, and weighed. […]

[3] = tested on: Hartley strain guinea pig; test: Photo-sensitization test using guinea pigs (modified Adjuvant and Strip method); conditions: 2% test substance with 2% KP in ethanol, UVA 10 J/cm^2, toward the KP group
Description: An effect exerted by the UV blocker to skin symptoms due to an immunological mechanism resulting from KP upon photo-irradiation was further examined by a modified method of the Adjuvant and Strip method of Sato et al. (Nishinihon Hifuka, 42, 831-837 (1980)) using guinea pigs. That is, the cervical back of a white female Hartley strain guinea pig (eight guinea pigs per group) was depilated, and the adjuvant was administered to four corners of 2×2 cm, and then, 2% ketoprofen (KP) solution, or 2% KP and 2% test substance {4-tert-butyl-4′-methoxydibenzoylmethane (BM-DBM)} solution, which were dissolved in ethanol, were applied on the above parts of 2×2 cm under an open condition, and after 1 hour, UVA (10 J/cm^2) was irradiated. This treatment of sensitization induction was carried out successively for 5 days. […] Skin reactions after 24 hours and 48 hours from the irradiation were evaluated according to the above standard of Sato et al. The suppression effect by BM-DBM to the skin symptoms due to the immunological mechanism resulting from KP upon photo-irradiation was evaluated by the erythema/edema suppression ratio (%) toward the KP group.

[4] = tested on: Balb/c mice; test: Murine local lymph node test 1 (modified LLNA, 3H-TdR uptake after ketoprofen + UVA); conditions: UVA 20 J/cm^2, 3 days, toward the KP group
Description: Detection of a skin symptom due to an immunological mechanism resulting from KP upon photo-irradiation was carried out by a modified method of Murine Local Lymph Node Assay (LLNA) proposed by The Interagency Coordinating Committee on the Validation of Alternative Methods (ICCVAM). Namely, as a test animal, Balb/c mice (female, 8-12 weeks old) were used. The test substance {4-tert-butyl-4′-methoxydibenzoylmethane (BM-DBM)} and 2% ketoprofen (KP) which were dissolved in acetone—olive oil (4:1, v/v) were applied on the back of the pinna, and followed by UVA irradiation at 20 J/cm^2. This treatment inducing sensitization was carried out for 3 days consecutively. After 5 days from the start of sensitization, a ^3H-methylthymidine (3H-TdR)/PBS solution of 20μCi per mouse was injected in the tail vein, and after 5 hours, the auricular lymph node was removed. The removed lymph node was made into a single lymph cell suspension by a cell strainer, then washed two times with PBS, and let it stand in 5% trichloroacetic acid (TCA) solution at 4° C. overnight to precipitate DNA. The precipitate was suspended in 1 ml of 5% TCA solution and a radiation activity was measured by a liquid scintillation counter.

[5] = test substance conc. 0.5% in ethanol with 2% ketoprofen on the auricle, ear thickness 24 hours after irradiation

## 2-ethylhexyl dimethoxybenzylidenedioxoimidazolidinepropionate [DB-DIH]
[1]; [5]
  Ear edema suppression ratio (%): 34%

## O=C(c1ccc(O)cc1O)c1ccc(O)cc1O [2,2′,4,4′-Tetrahydroxybenzophenone, reference compound]
[2]
  Suppression ratio (%) in the weight increase of the auricular lymph node: −32%

## COc1ccc(O)c(-n2nc3ccccc3n2)c1 [2-(2′-Hydroxy-5′-methoxyphenyl)-bezotriazole]
[2]
  Suppression ratio (%) in the weight increase of the auricular lymph node: 4%

## CCCCC(CC)COC(=O)C=Cc1ccc(OC)cc1 (centres unmarked) [2-Ethylhexyl 4-methoxycinnamate]
[2]
  Suppression ratio (%) in the weight increase of the auricular lymph node: 20%

## Nc1ccc(C(=O)O)cc1 [4-Aminobenzoic acid, reference compound]
[2]
  Suppression ratio (%) in the weight increase of the auricular lymph node: −39%

## COc1ccc(C(=O)CC(=O)c2ccc(C(C)(C)C)cc2)cc1 [BM-DBM, 4-tert-butyl-4′-methoxydibenzoylmethane]
[3]; skin reaction 24 hours after photo-induction irradiation
  Erythema/Edema suppression ratio (%) After 24 hrs: 69%
[3]; skin reaction 48 hours after photo-induction irradiation
  Erythema/Edema suppression ratio (%) After 48 hrs: 74%
[2]
  Suppression ratio (%) in the weight increase of the auricular lymph node: 88%
[4]; BM-DBM concentration 0.06% with 2% ketoprofen in acetone-olive oil (4:1), auricular lymph node
  ^3H-TdR uptake suppression ratio(%): 30%
[4]; BM-DBM concentration 0.13% with 2% ketoprofen
  ^3H-TdR uptake suppression ratio(%): 51%
[4]; BM-DBM concentration 0.25% with 2% ketoprofen
  ^3H-TdR uptake suppression ratio(%): 24%
[4]; BM-DBM concentration 0.50% with 2% ketoprofen
  ^3H-TdR uptake suppression ratio(%): 94%
[4]; BM-DBM concentration 1.00% with 2% ketoprofen
  ^3H-TdR uptake suppression ratio(%): 99%
[1]; test substance conc. 0.1% with 2% ketoprofen, 24 hours after irradiation
  Ear edema suppression ratio (%): 41%
[1]; test substance conc. 0.3% with 2% ketoprofen, 24 hours after irradiation
  Ear edema suppression ratio (%): 81%
[1]; [5]
  Ear edema suppression ratio (%): 98%

## CCCCCCOC(=O)c1ccccc1C(=O)c1ccc(N(C)C)cc1O [DHB-BH, n-hexyl 2-(4-dimethylamino-2-hydroxybenzoyl)benzoate]
[1]; [5]
  Ear edema suppression ratio (%): 84%

## CCOC(=O)c1ccc(N)cc1 [Ethyl 4-aminobenzoate]
[2]
  Suppression ratio (%) in the weight increase of the auricular lymph node: 43%

## O=C(OCCO)c1ccccc1O [Ethylene glycol monosalicylate, reference compound]
[2]
  Suppression ratio (%) in the weight increase of the auricular lymph node: −68%

## COc1ccc(C(=O)c2ccccc2)c(O)c1 [Oxybenzone]
[2]
  Suppression ratio (%) in the weight increase of the auricular lymph node: 56%

## O=C(Oc1ccccc1)c1ccccc1O [Phenyl salicylate, reference compound]
[2]
  Suppression ratio (%) in the weight increase of the auricular lymph node: 0%

## CC1(C)C2CCC1(CS(=O)(=O)O)C(=O)/C2=C\c1ccc(/C=C2/C(=O)C3(CS(=O)(=O)O)CCC2C3(C)C)cc1 [TP-DCS, terephthalylidene-3,3′-dicamphor-10,10′-disulfonic acid]
[2]
  Suppression ratio (%) in the weight increase of the auricular lymph node: 63%
[1]; [5]
  Ear edema suppression ratio (%): 65%

From patent publication US20100311700A1, “Transdermal preparation for external use containing nonsterioidal antiinflammatory/analgesic agent” (Hisamitsu Pharmaceutical Co., Inc., priority 2005, published 2010)
